The target in one experiment is CRTH2 (Homo sapiens (Human), UniProt Q9Y5Y4). As to the kind of experiment: CRTH2 receptor binding inhibitory activity ([3H]-PGD2 displacement, membranes of CRTH2-expressing K562 cell). To be noted: [3H]-PGD2 displacement, membrane of CRTH2-expressing K562 cell, read-out: Ki. How it is done:
Cell membrane was prepared from CRTH2-expressing K562 cell. The cell membrane (20 μg/well) was mixed with reaction buffer (50 mM Tris/HCl, pH 7.4, 10 mM MgCl2). Then, [^3H]-PGD2 was added to the mixture and incubated for 60 min at room temperature. […] Then, the mixture was filtrated with glass paper immediately. The filter paper was washed several times and radio activity on the filter was measured. Specific binding was defined as difference between total and non-specific binding (radio activity with 10 μM PGD2). Ki values for each compound were calculated from displacement curve.

The target of a further experiment is Human DP1 receptor (Homo sapiens (Human), UniProt Q13258). As to the kind of experiment: Human DP1 inhibitory activity in DP1-expressing cell (PGD2-induced cAMP). Type of experiment: cell-based. How it is done: Compounds were categorized as AA (cAMP is less than 100 nM) and A (cAMP is more than 100 nM and less than 5000 nM) as shown in Table 99 and 100.
Setting [1] is: CRTH2 receptor binding, categorized AAAA/AAA.
Setting [2] is: category of cAMP IC50, human DP1 receptor expressing Jurkut cell.
Setting [3] is: IC50 of PGD2 (60 nM)-induced cAMP increase, human DP1 receptor expressing Jurkut cell.

Read-outs that look alike come from different tables or passages of the source.

Human DP1 receptor, sequence (Q13258 whole entry): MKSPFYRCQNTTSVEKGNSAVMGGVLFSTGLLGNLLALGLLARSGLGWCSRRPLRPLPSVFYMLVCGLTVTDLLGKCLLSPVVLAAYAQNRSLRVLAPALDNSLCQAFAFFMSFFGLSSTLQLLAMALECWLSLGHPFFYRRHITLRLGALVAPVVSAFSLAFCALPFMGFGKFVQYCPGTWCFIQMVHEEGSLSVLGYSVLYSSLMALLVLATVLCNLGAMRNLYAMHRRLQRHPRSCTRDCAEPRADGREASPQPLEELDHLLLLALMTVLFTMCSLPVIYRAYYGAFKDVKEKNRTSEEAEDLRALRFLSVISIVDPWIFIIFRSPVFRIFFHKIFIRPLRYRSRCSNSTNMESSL
CRTH2, sequence (Q9Y5Y4 whole entry): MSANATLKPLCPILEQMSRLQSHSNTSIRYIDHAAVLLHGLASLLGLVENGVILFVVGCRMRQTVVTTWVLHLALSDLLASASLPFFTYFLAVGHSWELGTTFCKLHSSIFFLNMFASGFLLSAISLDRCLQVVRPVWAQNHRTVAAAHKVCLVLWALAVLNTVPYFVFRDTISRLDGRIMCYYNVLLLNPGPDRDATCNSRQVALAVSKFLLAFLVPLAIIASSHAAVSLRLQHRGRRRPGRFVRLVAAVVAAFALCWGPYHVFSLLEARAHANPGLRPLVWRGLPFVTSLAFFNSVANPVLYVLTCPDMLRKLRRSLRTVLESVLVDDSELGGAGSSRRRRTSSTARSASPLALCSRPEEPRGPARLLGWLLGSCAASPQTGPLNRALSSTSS

Usually Ki stands for a dissociation constant, usually derived from enzyme kinetics or from competition with a known ligand. The term IC50 denotes the concentration needed to halve the response being measured. `CCOc1ccc(S(=O)(=O)N2C[C@H](n3nc(CC(=O)O)c4ccccc43)[C@@](C)(F)C2)cn1` (racemic) [Compound I-207]: the Ki at CRTH2 (setting [1]) is under 100 nM. On Human DP1 receptor (setting [2]), the IC50 fell in the range of 100 to 5000 nM.
The matching figures for `COc1ccc(S(=O)(=O)N2C[C@H](n3nc(CC(=O)O)c4ccccc43)[C@@](C)(F)C2)cn1` (racemic) [Compound I-208]: under 100 nM and 100 to 5000 nM.
The matching figures for `C[C@]1(F)CN(S(=O)(=O)c2ccc(F)cc2)C[C@@H]1n1nc(CC(=O)O)c2ccccc21` (racemic) [Compound I-227]: under 100 nM and 100 to 5000 nM.
`CCOc1ccc(S(=O)(=O)N2C[C@H](n3nc(CC(=O)O)c4ccccc43)[C@@](C)(F)C2)cc1` (racemic) [Compound I-228]: the Ki on CRTH2 (setting [1]) was under 100 nM. Further, the IC50 at Human DP1 receptor (setting [2]) was under 100 nM.
Regarding `CCOc1ccc(S(=O)(=O)N2C[C@@H](C)[C@@H](n3nc(C(O)C(=O)O)c4ccccc43)C2)cc1` (single isomer, unassigned) [Compound I-306], the Ki at CRTH2 (setting [1]) is 100 to 5000 nM. For the same compound, the IC50 on Human DP1 receptor (setting [2]) was in the range of 100 to 5000 nM.
For the compound `CCOc1ccc(S(=O)(=O)N2C[C@@H](C)[C@@H](n3nc(C(O)C(=O)O)c4ccccc43)C2)cc1` (single isomer, unassigned) [Compound I-307], the Ki on CRTH2 (setting [1]) lay in the range of 100 to 5000 nM. At Human DP1 receptor (setting [2]), this compound gave an IC50 of 100 to 5000 nM.
With `CC(C)Oc1ccc(S(=O)(=O)N2CC[C@@H](n3nc(CC(=O)O)c4ccc(F)cc43)[C@H]2C)cc1` [Compound I-1], the Ki at CRTH2 (setting [1]) was in the range of 100 to 5000 nM. The same compound gave an IC50 on Human DP1 receptor (setting [2]) of 100 to 5000 nM.
Consider `CC(C)Oc1ccc(S(=O)(=O)N2C[C@H](n3nc(CC(=O)O)c4ccc(F)cc43)C[C@H]2C(N)=O)cc1` [Compound I-2], for which the Ki on CRTH2 (setting [1]) lay in the range of 100 to 5000 nM. The compound further came in with an IC50 against Human DP1 receptor (setting [2]) of 100 to 5000 nM.
With `CC(C)Oc1ccc(S(=O)(=O)N2C[C@H](n3nc(CC(=O)O)c4ccc(F)cc43)C[C@@H]2C(N)=O)cc1` [Compound I-3], the Ki at CRTH2 (setting [1]) lay within 100 to 5000 nM. Also, the IC50 is 350 nM against Human DP1 receptor (setting [3]) and 100 to 5000 nM at Human DP1 receptor (setting [2]).
`CNC(=O)[C@@H]1C[C@@H](n2nc(CC(=O)O)c3ccc(F)cc32)CN1S(=O)(=O)c1ccc(OC(C)C)cc1` [Compound I-4]: the Ki on CRTH2 (setting [1]) is 100 to 5000 nM; at CRTH2, 320 nM. The compound also returned an IC50 against Human DP1 receptor (setting [2]) of 100 to 5000 nM.
For `CC(C)Oc1ccc(S(=O)(=O)N2C[C@H](n3nc(CC(=O)O)c4ccc(F)cc43)C[C@H]2C(=O)N(C)C)cc1` [Compound I-5], the Ki on CRTH2 (setting [1]) is 100 to 5000 nM. Also, the IC50 at Human DP1 receptor (setting [2]) was in the range of 100 to 5000 nM.
Take `CC(C)NC(=O)[C@@H]1C[C@@H](n2nc(CC(=O)O)c3ccc(F)cc32)CN1S(=O)(=O)c1ccc(OC(C)C)cc1` [Compound I-6]: on CRTH2 (setting [1]), the Ki lay within 100 to 5000 nM. At Human DP1 receptor (setting [2]), this compound gave an IC50 of 100 to 5000 nM.
With `CC(C)Oc1ccc(S(=O)(=O)N2C[C@@H](n3nc(CC(=O)O)c4ccc(F)cc43)C[C@H]2C)cc1` [Compound I-8], on CRTH2 (setting [1]), the Ki is under 100 nM. The same compound returned an IC50 against Human DP1 receptor (setting [2]) of 100 to 5000 nM.
With `CC(C)Oc1ccc(S(=O)(=O)N2C[C@H](n3nc(CC(=O)O)c4ccc(F)cc43)C[C@H]2C)cc1` [Compound I-10], the Ki at CRTH2 (setting [1]) is under 100 nM; at CRTH2 it was 8.2 nM. In addition, the IC50 against Human DP1 receptor (setting [2]) was in the range of 100 to 5000 nM.
Regarding `CC(C)Oc1ccc(S(=O)(=O)N2C[C@H](n3nc(CC(=O)O)c4ccc(F)cc43)C[C@@H]2CO)cc1` [Compound I-11], the Ki at CRTH2 (setting [1]) lay in the range of 100 to 5000 nM. Also, the IC50 at Human DP1 receptor (setting [3]) was 99 nM; against Human DP1 receptor (setting [2]) it was under 100 nM.
Turning to `CC(C)Oc1ccc(S(=O)(=O)N2C[C@H](n3nc(CC(=O)O)c4ccc(F)cc43)C[C@H]2CF)cc1` [Compound I-12], the Ki at CRTH2 (setting [1]) was under 100 nM. The half-maximal inhibitory concentration (IC50) on Human DP1 receptor (setting [2]) is 100 to 5000 nM.
Taken in the same sequence, the figures for `CC(C)Oc1ccc(S(=O)(=O)N2C[C@H](n3nc(CC(=O)O)c4ccc(F)cc43)C[C@@H]2CF)cc1` [Compound I-13] were under 100 nM and under 100 nM.
The matching figures for `CC(C)Oc1ccc(S(=O)(=O)N2C[C@H](n3nc(CC(=O)O)c4ccc(F)cc43)C[C@H]2CC#N)cc1` [Compound I-14]: under 100 nM and 100 to 5000 nM.
Take `CC(C)Oc1ccc(S(=O)(=O)N2C[C@H](n3nc(CC(=O)O)c4cc(Cl)ccc43)C[C@H]2C)cc1` [Compound I-15]: the Ki at CRTH2 (setting [1]) was under 100 nM; on CRTH2 it was 56 nM. Also, the IC50 at Human DP1 receptor (setting [2]) was in the range of 100 to 5000 nM.
`COC[C@@H]1C[C@@H](n2nc(CC(=O)O)c3ccc(F)cc32)CN1S(=O)(=O)c1ccc(OC(C)C)cc1` [Compound I-16]: the Ki on CRTH2 (setting [1]) is under 100 nM. The compound further registered an IC50 against Human DP1 receptor (setting [2]) of 100 to 5000 nM.
Taken in the same sequence, the figures for `COC[C@H]1C[C@@H](n2nc(CC(=O)O)c3ccc(F)cc32)CN1S(=O)(=O)c1ccc(OC(C)C)cc1` [Compound I-17] were under 100 nM and under 100 nM.
On to `CC(C)Oc1ccc(S(=O)(=O)N2C[C@H](n3nc(CC(=O)O)c4ccc(F)cc43)C[C@@H]2CC#N)cc1` [Compound I-18], for which the Ki on CRTH2 (setting [1]) is under 100 nM. Further, at Human DP1 receptor (setting [2]), the IC50 was 100 to 5000 nM.
Regarding `CC(C)Oc1ccc(S(=O)(=O)N2C[C@@H](C)[C@@H](n3nc(CC(=O)O)c4ccc(Cl)cc43)C2)cc1` [Compound I-33], the Ki at CRTH2 was determined as 2.1 nM.
`CC(C)Oc1ccc(S(=O)(=O)N2C[C@H](C)[C@@H](n3nc(CC(=O)O)c4cccc(F)c43)C2)cc1` [Compound I-70]: at CRTH2 (setting [1]), the Ki is under 100 nM.
`Cc1ccc2c(CC(=O)O)nn([C@H]3CN(S(=O)(=O)c4ccc(OC(C)C)cc4)C[C@@]3(C)F)c2c1` [Compound I-89] yielded an IC50 against Human DP1 receptor (setting [2]) of under 100 nM.
On Human DP1 receptor (setting [2]), `CCOc1ccc(S(=O)(=O)N2C[C@@H](n3nc(CC(=O)O)c4ccc(F)cc43)[C@@H](C)[C@@H]2C(N)=O)cc1` [Compound I-154] displayed an IC50 of 100 to 5000 nM.
On the same count and under the same terms, to `CCOc1ccc(S(=O)(=O)N2C[C@@H](C)[C@@H](n3nc(CC(=O)OC(C)C)c4ccccc43)C2)cc1` [Compound I-257] belongs 100 to 5000 nM; to `CC(C)Oc1ccc(S(=O)(=O)N2C[C@H](n3nc(CC(=O)O)c4ccc(F)cc43)C[C@@H]2COCC(O)CO)cc1` (stereo partly shown) [Compound I-281], 100 to 5000 nM.
Regarding `CCOc1ccc(S(=O)(=O)N2C[C@@H](C)[C@@H](n3nc(C(C)(OC)C(=O)O)c4ccccc43)C2)cc1` (stereo partly shown) [Compound I-286], the IC50 against Human DP1 receptor (setting [2]) is under 100 nM.
The same measure, in the same setting: under `CCOc1ccc(S(=O)(=O)N2C[C@H](n3nc(CC(=O)O)c4ccccc43)[C@@](C)(F)C2)cc1` [Compound I-309] stands under 100 nM.
On the same count and under the same terms, to `CCOc1ccc(S(=O)(=O)N2C[C@H](n3nc(CC(=O)O)c4ccccc43)C[C@H]2C(N)=O)cc1` [Compound I-321] belongs 100 to 5000 nM; to `CCOc1ccc(S(=O)(=O)N2C[C@@H](C)[C@@H](n3nc(C(C)(C)C(=O)O)c4ccccc43)C2)cc1` [Compound I-335], under 100 nM.
Same read-out and setting: under `CCOc1ccc(S(=O)(=O)N2C[C@@H](C)[C@@H](n3nc(C(F)C(=O)O)c4ccccc43)C2)cc1` (stereo partly shown) [Compound I-337] stands 100 to 5000 nM.
In turn, `CC(C)Oc1ccc(S(=O)(=O)N2C[C@H](n3nc(CC(=O)O)c4ccc(F)cc43)C[C@@H]2COc2ccccn2)cc1` [Compound I-339] had an IC50 against Human DP1 receptor (setting [2]) of 100 to 5000 nM.
In the case of `CC(C)Oc1ccc(S(=O)(=O)N2C[C@H](n3nc(CC(=O)O)c4ccc(F)cc43)C[C@@H]2COc2ccccc2F)cc1` [Compound I-340], on Human DP1 receptor (setting [2]), the IC50 fell in the range of 100 to 5000 nM.
Turning to `CCOc1ccc(S(=O)(=O)N2C[C@@H](n3nc(CC(=O)O)c4ccccc43)[C@@H]3COC[C@@H]32)cc1` [Compound I-367], the Ki on CRTH2 (setting [1]) is 100 to 5000 nM; at CRTH2, 100 nM.
